# Laboratory results: patent publication US20170216252A1, “ANTI-BACTERIAL PYRUVATE KINASE MODULATOR COMPOUNDS, COMPOSITIONS, USES AND METHODS” (SIMON FRASER UNIVERSITY, priority 2014, published 2017)
# Where two headings read alike, the source gives them in different places.
# Assays:
# MRSA PK = molecular target: T1, MRSA PK (Staphylococcus aureus, UniProt Q6GG09); test: MRSA PK activity, continuous LDH-coupled assay; format: biochemical, S. aureus (MRSA strain Sanger 252)
# T1 construct: His tag (pET-28a(+) vector) (N); made in house; host or cells: E. coli BL-21 (DE3)
# T1 sequence (Q6GG09 whole entry): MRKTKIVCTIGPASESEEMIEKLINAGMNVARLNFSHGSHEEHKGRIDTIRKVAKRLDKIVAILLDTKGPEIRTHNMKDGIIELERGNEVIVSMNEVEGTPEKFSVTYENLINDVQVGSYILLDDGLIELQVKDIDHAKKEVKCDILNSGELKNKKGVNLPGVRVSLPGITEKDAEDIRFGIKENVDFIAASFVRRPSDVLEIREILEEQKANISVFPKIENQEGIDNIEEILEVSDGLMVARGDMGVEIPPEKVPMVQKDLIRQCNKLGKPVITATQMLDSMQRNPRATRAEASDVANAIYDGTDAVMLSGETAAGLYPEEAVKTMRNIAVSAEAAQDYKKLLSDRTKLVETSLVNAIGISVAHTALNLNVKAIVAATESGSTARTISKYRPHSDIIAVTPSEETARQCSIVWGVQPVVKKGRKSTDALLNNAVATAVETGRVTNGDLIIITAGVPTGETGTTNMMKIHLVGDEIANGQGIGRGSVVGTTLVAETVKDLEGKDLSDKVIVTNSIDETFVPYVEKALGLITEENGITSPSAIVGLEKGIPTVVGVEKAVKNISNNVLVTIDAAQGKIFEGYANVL
# Procedure, shortened: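 Activity was tracked as the 340 nm absorbance fall from NADH oxidation via coupled LDH, at 30 °C for ≤5 min. Reactions began on adding 15 nM recombinant His-tagged S. aureus PK, with inhibitor DMSO kept ≤1%. Four-parameter dose–response fitting gave IC50.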
# S. aureus ATCC 29213 = test: In vitro susceptibility, broth microdilution MIC; format: cell-based, Staphylococcus aureus
# Procedure, shortened: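 The MIC against S. aureus 29213 was determined by CLSI 2-fold serial broth microdilution in Mueller Hinton broth. Plates were incubated for 18–24 h at 37 °C and read at OD600 with background subtracted. The MIC was the lowest concentration giving complete growth inhibition versus compound-free wells.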
# [1] = Tables 1-6, 2 mM ADP, 10 mM PEP, 15 nM PK, read-out: IC50
# [2] = Staphylococcus aureus, ATCC29213, Tables 1-6 and text, minimum concentration to give >98% inhibition of growth, read-out: MIC
# [3] = Staphylococcus aureus, ATCC29213, Table 8, tested at least in duplicate, differing values all given, read-out: MIC
# [4] = read-out: % inhibition at the highest concentration tested (IC50)
SMILES,MIC (S. aureus ATCC 29213; [2]),IC50 (MRSA PK),MIC (S. aureus ATCC 29213; [3]),further results
"Brc1ccc2[nH]c(-c3cc4cc(Br)c(Br)cc4[nH]3)cc2c1 [Compound 10m, 5,5′,6-Tribromo-1H,1′H-2,2′-biindole]",1 µg/mL,–,–,IC50 (MRSA PK; [1]): 1.6 nM
"Brc1ccc2cc(CNCc3ccccc3)[nH]c2c1 [Compound 146, N-Benzyl-1-(6-bromo-1H-indol-2-yl)methanamine]",–,> 1000 nM,32 µg/mL,–
"Clc1cnc(/C=C/c2cc3ccc(Br)cc3[nH]2)cn1 [Compound 118, (E)-6-Bromo-2-(2-(5-chloropyrazin-2-yl)vinyl)-1H-indole]",–,50 to 100 nM,16 µg/mL,–
"O=C(Nc1nc2ccc(Br)cc2[nH]1)c1cc(Br)ccc1O [Compound 78, 5-Bromo-N-(6-bromo-1H-benzo[d]imidazol-2-yl)-2-hydroxybenzamide]",4 µg/mL,11.3 nM,–,–
"O=C(Nc1cc(Br)ccc1O)c1cc2ccc(Br)cc2[nH]1 [Compound 62, 6-Bromo-N-(5-bromo-2-hydroxyphenyl)-1H-indole-2-carboxamide]",> 64 µg/mL,12.3 nM,–,–
"Brc1ccc2cc(/C=C/c3ccc(-n4ccnc4)cc3)[nH]c2c1 [Compound 104, (E)-2-(4-(1H-Imidazol-1-yl)styryl)-6-bromo-1H-indole]",–,> 1000 nM,> 64 µg/mL,–
"O=C(O)c1c(/C=C/c2ccc(Br)cn2)[nH]c2cc(Br)ccc12 [Compound 153, (E)-6-Bromo-2-(2-(5-bromopyridin-2-yl)vinyl)-1H-indole-3-carboxylic acid]",–,100 to 1000 nM,32 µg/mL,–
"Cn1c(C#Cc2cc3cc(Br)ccc3[nH]2)cc2cc(Br)ccc21 [Compound 48, 5-Bromo-2-((5-bromo-1H-indol-2-yl)ethynyl)-1-methyl-1H-indole]",> 64 µg/mL,–,–,inhibition at 10 µM (MRSA PK; [4]): 60%
"CC(=O)c1c(CCc2ccc(Cl)cc2)[nH]c2cc(Br)ccc12 [Compound 39b, 1-(6-bromo-2-(4-chlorophenethyl)-1H-indol-3-yl)ethanone]",4 µg/mL,28 nM,–,–
c1ccc2[nH]c(-c3ccc(-c4cc5ccccc5[nH]4)cc3)cc2c1 [Compound 46],> 16 µg/mL,–,–,inhibition at 10 µM (MRSA PK; [4]): 52%
"Clc1ccc2[nH]c(-c3cc4ccc(Br)cc4[nH]3)nc2c1 [Compound 164, 2-(6-bromo-1H-indol-2-yl)-5-chloro-1H-benzo[d]imidazole]",–,< 50 nM,1 µg/mL,–
"COC(=O)c1c(C(=O)Nc2ccc(OC)nc2)[nH]c2cc(Br)ccc12 [Compound 135, Methyl 6-bromo-2-((6-methoxypyridin-3-yl)carbamoyl)-1H-indole-3-carboxylate]",–,–,> 64 µg/mL,EC50 (MRSA PK): 31.7 nM
"O=C(O)c1cc(Br)cc2[nH]c(/C=C/c3ccc(Cl)cc3)cc12 [Compound 158, (E)-6-Bromo-2-(4-chlorostyryl)-1H-indole-4-carboxylic acid]",–,> 1000 nM,32 µg/mL,–
"Cn1c(C(=O)Nc2nc3ccc(Br)cc3s2)cc2ccccc21 [Compound 69, N-(6-Bromobenzo[d]thiazol-2-yl)-1-methyl-1H-indole-2-carboxamide]",> 64 µg/mL,–,–,inhibition at 10 µM (MRSA PK; [4]): 61%
"Brc1ccc(-c2cc3ccc(Br)cc3[nH]2)cc1 [Compound 55, 6-bromo-2-(4-bromophenyl)-1H-indole]",> 64 µg/mL,56.9 nM,–,–
"Clc1ccc(/C=C/c2cc3ccc(Br)cc3[nH]2)cn1 [Compound 98, (E)-6-Bromo-2-(2-(6-chloropyridin-3-yl)vinyl)-1H-indole]",–,< 50 nM,> 64 µg/mL,–
"O=C(Nc1ccc(Cl)cc1)c1cc2ccc(Br)cc2[nH]1 [Compound 128, 6-bromo-N-(4-chlorophenyl)-1H-indole-2-carboxamide]",–,17 nM,> 64 µg/mL,–
"COC(=O)c1c(C(=O)Nc2ccc(Cl)cc2)[nH]c2cc(Br)ccc12 [Compound 130, Methyl 6-bromo-2-((4-chlorophenyl)carbamoyl)-1H-indole-3-carboxylate]",–,< 50 nM,> 64 µg/mL,–
"CC(=O)c1c(/C=C/c2ccccc2)[nH]c2cc(Br)ccc12 [Compound 38a, (E)-1-(6-bromo-2-styryl-1H-indol-3-yl)ethanone]",> 64 µg/mL,> 20000 nM,–,–

SMILES,MIC (S. aureus ATCC 29213; [2]),IC50 (MRSA PK),MIC (S. aureus ATCC 29213; [3]),further results
"O=C(Nc1nc2ccc(Br)cc2s1)c1cc2ccccc2[nH]1 [Compound 54, N-(6-Bromobenzo[d]thiazol-2-yl)-1H-indole-2-carboxamide]",> 64 µg/mL,–,–,IC50 (MRSA PK; [1]): 11.1 nM
"O=C(Nc1nc2ccc(Br)cc2[nH]1)c1cc2cc(Br)ccc2[nH]1 [Compound 79, 5-bromo-N-(6-bromo-1H-benzo[d]imidazol-2-yl)-1H-indole-2-carboxamide]",> 64 µg/mL,3.5 nM,–,–
"Cn1c(C#Cc2cc3ccc(Br)cc3[nH]2)cc2ccc(Br)cc21 [Compound 26a, 6-bromo-2-((6-bromo-1H-indol-2-yl)ethynyl)-1-methyl-1H-indole]",> 64 µg/mL,–,–,IC50 (MRSA PK; [1]): 13.7 nM
"O=C(c1c(C#Cc2ncccn2)[nH]c2cc(Br)ccc12)C(F)(F)F [Compound 169, 1-(6-Bromo-2-(pyrimidin-2-ylethynyl)-1H-indol-3-yl)-2,2,2-trifluoroethanone]",–,> 100000 nM,> 64 µg/mL,–
"O=C(Nc1nc2ccc(Br)cc2s1)c1cccc(Br)c1O [Compound 70, 3-Bromo-N-(6-bromobenzo[d]thiazol-2-yl)-2-hydroxybenzamide]",4 µg/mL,–,–,IC50 (MRSA PK; [1]): 42.9 nM
"O=C(c1c(-c2cc3ccccc3[nH]2)[nH]c2cc(Br)ccc12)C(F)(F)F [Compound 177, 1-(6-bromo-1H,1′H-[2,2′-biindol]-3-yl)-2,2,2-trifluoroethan-1-one]",–,> 1000 nM,2 µg/mL,"MIC (S. aureus ATCC 29213; Table 8, tested at least in duplicate, differing values all given): 1 µg/mL"
"Brc1ccc2cc(CCc3cn4ccccc4n3)[nH]c2c1 [Compound 125, 2-(2-(6-Bromo-1H-indol-2-yl)ethyl)imidazo[1,2-a]pyridine]",–,> 1000 nM,> 64 µg/mL,–
"Brc1ccc2cc(-c3ccc(-c4cc5ccc(Br)cc5[nH]4)cc3)[nH]c2c1 [Compound 33a, 1,4-bis(6-bromo-1H-indol-2-yl)benzene]",> 64 µg/mL,–,–,inhibition at 1 µM (MRSA PK; [4]): 54%
"Clc1ccc(/C=C/c2cc3ccc(Br)cc3[nH]2)nc1 [Compound 108, (E)-6-Bromo-2-(2-(5-chloropyridin-2-yl)vinyl)-1H-indole]",–,100 to 1000 nM,> 64 µg/mL,–
"Brc1ccc2cc(-c3ccc(-c4cc5ccc(Br)cc5[nH]4)nn3)[nH]c2c1 [Compound 49, 3,6-bis(6-Bromo-1H-indol-2-yl)pyridazine]",> 32 µg/mL,–,–,inhibition at 10 µM (MRSA PK; [4]): 70%
"O=C(c1c(CCc2ccc(Cl)nc2)[nH]c2cc(Br)ccc12)C(F)(F)F [Compound 173, 1-(6-Bromo-2-(2-(6-chloropyridin-3-yl)ethyl)-1H-indol-3-yl)-2,2,2-trifluoroethanone]",–,> 1000 nM,> 64 µg/mL,–
"O=C(Nc1nc2ccc(Br)cc2s1)c1ccc(Br)cc1O [Compound 67, 4-Bromo-N-(6-bromobenzo[d]thiazol-2-yl)-2-hydroxybenzamide]",> 64 µg/mL,–,–,IC50 (MRSA PK; [1]): 214 nM
"COC(=O)c1c(NCc2ccc(Cl)cc2)[nH]c2cc(Br)ccc12 [Compound 165, Methyl 6-bromo-2-(4-chlorobenzylamino)-1H-indole-3-carboxylate]",–,> 1000 nM,4 µg/mL,–
"Brc1ccc2[nH]c(C#Cc3cc4cc(Br)ccc4[nH]3)cc2c1 [Compound 45, 1,2-bis(5-Bromo-1H-indol-2-yl)ethyne]",> 64 µg/mL,–,–,inhibition at 10 µM (MRSA PK; [4]): 60%
"O=C(Nc1nc2cc(Br)ccc2s1)c1cc(Br)ccc1O [Compound 50, 5-Bromo-N-(5-bromobenzo[d]thiazol-2-yl)-2-hydroxybenzamide]",> 64 µg/mL,–,–,inhibition at 10 µM (MRSA PK; [4]): 60%
"O=C(Nc1ccc(Cl)cc1)c1[nH]c2cc(Br)ccc2c1C(=O)O [Compound 129, 6-Bromo-2-((4-chlorophenyl)carbamoyl)-1H-indole-3-carboxylic acid]",–,< 50 nM,16 µg/mL,–
"O=C(Nc1ccc(Cl)nc1)c1[nH]c2cc(Br)ccc2c1C(=O)O [Compound 139, 6-Bromo-2-((6-chloropyridin-3-yl)carbamoyl)-1H-indole-3-carboxylic acid]",–,50 to 100 nM,> 64 µg/mL,–
"O=C(O)c1cc(Br)cc2[nH]c(CCc3ccc(Cl)cc3)cc12 [Compound 159, 6-bromo-2-(4-chlorophenethyl)-1H-indole-4-carboxylic acid]",–,100 to 1000 nM,64 µg/mL,–
